Measured values from patent US8129547B2, “Anticoagulation of human blood ex vivo” (priority 2006, dated 2012).

Tests used:
[1] = molecular target: T1, Plasma-kallikrein (Homo sapiens, UniProt P03952); experiment: Determination of Ki values, chromogenic substrate, Dixon evaluation: plasma-kallikrein; type: biochemical; settings: 25° C., tris buffer pH 8.0, substrate Bz-Pro-Phe-Arg-pNA; read-out: Ki PK (plasma-kallikrein)
T1 construct: purchased Haemochrom Diagnostica GmbH (Essen, D)
Source text: In a particularly preferred embodiment the compound according to Formula (I) inhibits not only the blood coagulation factor XA but also thrombin and/or plasma kallikrein. […] Here too the Ki value stands for the dissociation constant of the respective enzyme-inhibitor complex. The determination of the Ki values of the inhibitors vis-a-vis thrombin and plasma kallikrein is preferably carried out in a similar manner to the determination, described above, of the Ki values of the inhibitors vis-a-vis the coagulation factor Xa, but in this case CH3SO2-D-HHT-gly-arg-pNA (with HHT=hexahydrothyrosin, and pNA=para-nitroaniline; sold under the commercial name Pefachrome tPA) are used as substrates in the case of thrombin and bz-pro-phe-arg-pNA (with bz=[…], and pNA=para-nitroaniline; sold under the commercial name Chromozym PK) in the case of plasma-kallikrein.
The inhibitors used here are the commercially available exemplary inhibitors Pefabloc tPA/Xa (2,7-bis(4-amidinobenzylidene)-cyclopeptanone-(1), Pentapharm Ltd. Basel, Switzerland), CJ-FXa (benzylsulphonyl-D-arginyl-glycyl-4-amidinobenzylamide, Haemochrom GmbH, Essen, Germany) and CJ-PK (benzylsulphonyl-D-seryl-carbobenzoxylsyl-4-amidinobenzylamide, Haemochrom GmbH, Essen, Germany). Research samples were available of DX-9065a ((+)-(2S)-2-[4-[[3S)-1-acetimidoyl-3-pyrrodinyl]oxy]phenyl]-3-[7-amidino-2-naphthyl]propanic acid, Daiichi Pharmaceutical Company Ltd., Tokyo, Japan), and Otamixaban (2-(R)-(3-carbamimidoylbenyzyl)-3-(R)-[4-(1-oxypyridin-4-yl)benzoylamino]-butyric acid-methylester, Sanofi-Aventis GmbH, Frankfurt, Germany), both of which are undergoing clinical tests. In order to examine the inhibitory action of these exemplarily used inhibitors on the blood coagulation factors plasma-kallikrein, VIIa, Xa, XIa and XIIa, the Ki values of the respective enzyme-inhibitor complexes were determined.
The enzymes were produced by Haemochrom Diagnostica GmbH (Essen, D) and were dissolved in 0.154 mol/l NaCl. The substrates (Pentapharm AG, Basel, CH) were dissolved in H2O and the inhibitor was dissolved in the above-mentioned tris buffer. The following substrates were used for the individual enzymes:
(§1) 200 μl of inhibitor solution were mixed with 25 μl of substrate for the determination and the reaction was started by the addition of 50 μl of enzyme. After a reaction time of 3-5 mins. 25 μl of acetic acid (50%) were added and the extinction was measured at 405 nm with a microplate reader (iEMS Reader MF 12401, Labsystems, Helsinki, Finland). The evaluation was carried out graphically according to Dixon (Biochem. J., 55, 170, 1953).
The enzymes were produced by Haemochrom Diagnostica GmbH (Essen, D), and only thrombin was manufactured in our own laboratory according to Walsmann (Pharmazie 23, 401-402, 1968). All the enzymes were dissolved in 0.154 mol/l NaCl. The substrates (Pentapharm AG, Basel, CH) were dissolved in H2O and the inhibitor was dissolved in the above-mentioned tris buffer. The following substrates were used for the individual enzymes:
as §1, with “1401,” for “12401,”

[2] = system: thrombin formation; experiment: Inhibition of thrombin formation (prothrombin fragment F1+2) in hirudin-anticoagulated plasma after activation by kaolin; type: biochemical, human; settings: 37° C.
Procedure: In this example thrombin formation was activated in plasma anticoagulated with hirudin by the addition of kaolin and the ability of the inhibitors to inhibit thrombin formation was examined.
Blood sampled from a patient was initially anticoagulated by means of the thrombin inhibitor hirudin. For this purpose 9 parts of blood were mixed with 1 part of hirudin solution (recombinant hirudin HBW 023, Hoechst, Frankfurt, 2000 E/ml of physiological NaCl solution), then centrifuged for 10 minutes at 1300 revolutions per minute (rpm). 900 μl of the plasma anticoagulated with hirudin, present in excess, were mixed in polypropylene tubes with 50 μl of inhibitor solution or 0.9% NaCl solution and 50 μl kaolin suspension (from APTT-Test from Roche Diagnostics, diluted 1:250 before use with physiological NaCl solution), and incubated at 37° C. with light shaking. In this case kaolin acts as a non-physiological surface which activates the blood coagulation thereby finally stimulating thrombin formation. At certain times the quantity of the thrombin formed was determined immunologically on the basis of the formation of the prothrombin fragment F1+2 (Enzygnost F1+2 micro, Dade Behring GmbH, Marburg). This determination is based on an enzyme immunoassay according to the sandwich principle. For this purpose aliquot volumes (600 μl) were anticoagulated at certain times with 0.1 M EDTA (40 μl) and kept at −20° C. To determine the concentration of the prothrombin fragment F1+2 50 μl of plasma (if necessary diluted with PBS, phosphate-buffered saline) were incubated with monoclonal antibodies against the human prothrombin fragment F1+2, which were fixed on a microtitre plate included in the test kit. After a washing stage with PBS, which was used to remove sample material not bound by the antibodies, antibodies conjugated with peroxidase were incubated against human prothrombin binding to the free F1+2 determinants. […] This was then determined photometrically at a wavelength of 492 nm. […]

T1 sequence (P03952 391-638 limits assumed): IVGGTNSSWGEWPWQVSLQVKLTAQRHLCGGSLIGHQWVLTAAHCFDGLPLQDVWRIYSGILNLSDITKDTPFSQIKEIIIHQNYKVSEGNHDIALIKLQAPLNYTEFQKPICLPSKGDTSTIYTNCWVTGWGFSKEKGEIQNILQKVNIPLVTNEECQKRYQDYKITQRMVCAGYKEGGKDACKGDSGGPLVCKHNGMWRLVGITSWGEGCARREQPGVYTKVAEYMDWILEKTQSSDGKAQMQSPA
T1 sequence (P03952 20-390 partner limits assumed): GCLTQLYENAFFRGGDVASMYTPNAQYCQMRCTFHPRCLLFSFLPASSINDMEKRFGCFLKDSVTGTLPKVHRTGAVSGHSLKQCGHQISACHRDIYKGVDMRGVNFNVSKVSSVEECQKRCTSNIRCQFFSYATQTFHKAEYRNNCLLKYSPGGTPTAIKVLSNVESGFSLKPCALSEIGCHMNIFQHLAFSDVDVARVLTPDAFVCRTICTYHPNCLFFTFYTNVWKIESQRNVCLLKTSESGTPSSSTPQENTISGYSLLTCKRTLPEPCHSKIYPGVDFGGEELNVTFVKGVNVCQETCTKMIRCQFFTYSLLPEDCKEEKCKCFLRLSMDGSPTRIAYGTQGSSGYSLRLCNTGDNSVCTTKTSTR

With COC(=O)[C@H](Cc1cccc(C(=N)N)c1)[C@@H](C)NC(=O)c1ccc(-c2cc[n+]([O-])cc2)cc1 (mixture of isomers) [Otamixaban, 2-(R)-(3-carbamimidoylbenyzyl)-3-(R)-[4-(1-oxypyridin-4-yl)benzoylamino]-butyric acid-methylester] as the molecule, how does the Ki [1] read?
The Ki was 26 nM.

What about the “suppression/blocking of thrombin formation after kaolin activation” value ([2]; concentration not stated in the sentence (FIGS. 1-3, 6)) of the same molecule?
The value was “particularly suitable for blocking thrombin formation”.

How did the Ki [1] turn out when N=C(N)c1ccc(C=C2CCCCC(=Cc3ccc(C(=N)N)cc3)C2=O)cc1 [Pefabloc tPA/Xa, 2,7-bis(4-amidinobenzylidene)-cycloheptanone-(1)] was run?
Its Ki is 720 nM.

What about the “suppression of thrombin formation after kaolin activation” value ([2]; inhibitor 100 μM) of the same molecule?
The value was “totally suppressing thrombin formation”.
